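Grown in 96-well plates, cells were treated for 48 hours with each compound at five concentrations. Insufficient inhibition: endpoint recorded as highest concentration tested. The concentration for full growth arrest is given as TGI.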

The first test deals with UACC-257 melanoma. The experiment in a line: NCI-60 cell line screen, 48 h.
With `CC[C@]1(Cc2ccc(OC)c(OC)c2)[C@@H]2C[C@@H](C3OCCO3)ON2O[C@H](OC2CCCC2(c2ccccc2)c2ccccc2)[C@@H]1OC(C)=O` (stereo partly drawn), the TGI worked out at 43.9 µM.

In turn, `N#CC1(C#N)C2CCCCC23OC(=N)C1(C#N)C(c1ccccc1)O3` (stereo not drawn) showed a TGI of 37.3 µM.

The compound `CCN1CCN=c2c3cc(OC)ccc3n3cnc4ccc1c2c43` gave a TGI of 2.05 µM.

As for `Cc1ccsc1/C=N/Nc1ccc2ccccc2n1`, the TGI came out at 53.2 µM.

A further test concerns NCI-H522 lung. Kind of test: NCI-60 cell line screen, 48 h.
In turn, `CC[C@]1(Cc2ccc(OC)c(OC)c2)[C@@H]2C[C@@H](C3OCCO3)ON2O[C@H](OC2CCCC2(c2ccccc2)c2ccccc2)[C@@H]1OC(C)=O` (stereo partly drawn) registered a TGI of 29.7 µM.

With `CCN1CCN=c2c3cc(OC)ccc3n3cnc4ccc1c2c43`, the TGI worked out at 0.207 µM.

For another test, the system named is SF-539 CNS. The experiment in a line: NCI-60 cell line screen, 48 h.
The compound `CC[C@]1(Cc2ccc(OC)c(OC)c2)[C@@H]2C[C@@H](C3OCCO3)ON2O[C@H](OC2CCCC2(c2ccccc2)c2ccccc2)[C@@H]1OC(C)=O` (stereo partly drawn) showed a TGI of over 100 µM.

The compound `N#CC1(C#N)C2CCCCC23OC(=N)C1(C#N)C(c1ccccc1)O3` (stereo not drawn) showed a TGI of 42.1 µM.

Take `CCN1CCN=c2c3cc(OC)ccc3n3cnc4ccc1c2c43`: the TGI turned out to be 0.413 µM.

The subject of the next test is BT-549 breast. Kind of test: NCI-60 cell line screen, 48 h.
Compound `CC[C@]1(Cc2ccc(OC)c(OC)c2)[C@@H]2C[C@@H](C3OCCO3)ON2O[C@H](OC2CCCC2(c2ccccc2)c2ccccc2)[C@@H]1OC(C)=O` (stereo partly drawn) yielded a TGI of 55.9 µM.

`N#CC1(C#N)C2CCCCC23OC(=N)C1(C#N)C(c1ccccc1)O3` (stereo not drawn) showed a TGI of 34.7 µM.

Compound `Cc1ccsc1/C=N/Nc1ccc2ccccc2n1` registered a TGI of over 100 µM.

The next test deals with HCT-116 colon. The experiment in a line: NCI-60 cell line screen, 48 h.
For the compound `CC[C@]1(Cc2ccc(OC)c(OC)c2)[C@@H]2C[C@@H](C3OCCO3)ON2O[C@H](OC2CCCC2(c2ccccc2)c2ccccc2)[C@@H]1OC(C)=O` (stereo partly drawn), the TGI worked out at 50.9 µM.

The compound `N#CC1(C#N)C2CCCCC23OC(=N)C1(C#N)C(c1ccccc1)O3` (stereo not drawn) yielded a TGI of 41.4 µM.

`CCN1CCN=c2c3cc(OC)ccc3n3cnc4ccc1c2c43` returned a TGI of 0.194 µM.

Turning to `Cc1ccsc1/C=N/Nc1ccc2ccccc2n1`, the TGI is over 100 µM.

Another test relates to A549 NSCLC. The experiment in a line: NCI-60 cell line screen, 48 h.
Compound `CC[C@]1(Cc2ccc(OC)c(OC)c2)[C@@H]2C[C@@H](C3OCCO3)ON2O[C@H](OC2CCCC2(c2ccccc2)c2ccccc2)[C@@H]1OC(C)=O` (stereo partly drawn) returned a TGI of 79.5 µM.

`N#CC1(C#N)C2CCCCC23OC(=N)C1(C#N)C(c1ccccc1)O3` (stereo not drawn) came in with a TGI of over 100 µM.

`CCN1CCN=c2c3cc(OC)ccc3n3cnc4ccc1c2c43` gave a TGI of 0.67 µM.

`Cc1ccsc1/C=N/Nc1ccc2ccccc2n1`: the TGI was over 100 µM.

The next test has as its system NCI-H226 lung. The experiment in a line: NCI-60 cell line screen, 48 h.
For the compound `CC[C@]1(Cc2ccc(OC)c(OC)c2)[C@@H]2C[C@@H](C3OCCO3)ON2O[C@H](OC2CCCC2(c2ccccc2)c2ccccc2)[C@@H]1OC(C)=O` (stereo partly drawn), the TGI was 36.5 µM.

Take `N#CC1(C#N)C2CCCCC23OC(=N)C1(C#N)C(c1ccccc1)O3` (stereo not drawn): the TGI was over 100 µM.

Take `CCN1CCN=c2c3cc(OC)ccc3n3cnc4ccc1c2c43`: the TGI worked out at 0.718 µM.

`Cc1ccsc1/C=N/Nc1ccc2ccccc2n1` registered a TGI of over 100 µM.

Another test relates to SNB-75 CNS. The experiment in a line: NCI-60 cell line screen, 48 h.
As for `CC[C@]1(Cc2ccc(OC)c(OC)c2)[C@@H]2C[C@@H](C3OCCO3)ON2O[C@H](OC2CCCC2(c2ccccc2)c2ccccc2)[C@@H]1OC(C)=O` (stereo partly drawn), the TGI worked out at 46.3 µM.

As for `N#CC1(C#N)C2CCCCC23OC(=N)C1(C#N)C(c1ccccc1)O3` (stereo not drawn), the TGI was 11.7 µM.

Take `CCN1CCN=c2c3cc(OC)ccc3n3cnc4ccc1c2c43`: the TGI came out at 1.4 µM.

For `Cc1ccsc1/C=N/Nc1ccc2ccccc2n1`, the TGI was over 100 µM.

Another test concerns RPMI-8226 leukemia. Kind of test: NCI-60 cell line screen, 48 h.
In turn, `CCN1CCN=c2c3cc(OC)ccc3n3cnc4ccc1c2c43` gave a TGI of 0.558 µM.

On to `Cc1ccsc1/C=N/Nc1ccc2ccccc2n1`, for which the TGI is over 100 µM.

Another test has as its system SK-MEL-5 melanoma. Kind of test: NCI-60 cell line screen, 48 h.
As for `CC[C@]1(Cc2ccc(OC)c(OC)c2)[C@@H]2C[C@@H](C3OCCO3)ON2O[C@H](OC2CCCC2(c2ccccc2)c2ccccc2)[C@@H]1OC(C)=O` (stereo partly drawn), the TGI worked out at 37.7 µM.

Compound `N#CC1(C#N)C2CCCCC23OC(=N)C1(C#N)C(c1ccccc1)O3` (stereo not drawn) registered a TGI of 33 µM.

Compound `CCN1CCN=c2c3cc(OC)ccc3n3cnc4ccc1c2c43` had a TGI of 0.784 µM.

As for `Cc1ccsc1/C=N/Nc1ccc2ccccc2n1`, the TGI stood at 13.2 µM.

In another test the test system is OVCAR-8 ovarian. Kind of test: NCI-60 cell line screen, 48 h.
`CC[C@]1(Cc2ccc(OC)c(OC)c2)[C@@H]2C[C@@H](C3OCCO3)ON2O[C@H](OC2CCCC2(c2ccccc2)c2ccccc2)[C@@H]1OC(C)=O` (stereo partly drawn) returned a TGI of 46.4 µM.

In the case of `N#CC1(C#N)C2CCCCC23OC(=N)C1(C#N)C(c1ccccc1)O3` (stereo not drawn), the TGI was found to be 48.9 µM.

For `CCN1CCN=c2c3cc(OC)ccc3n3cnc4ccc1c2c43`, the TGI was 1.4 µM.

For the compound `Cc1ccsc1/C=N/Nc1ccc2ccccc2n1`, the TGI is over 100 µM.

The next test relates to M14 melanoma. The experiment in a line: NCI-60 cell line screen, 48 h.
Take `CC[C@]1(Cc2ccc(OC)c(OC)c2)[C@@H]2C[C@@H](C3OCCO3)ON2O[C@H](OC2CCCC2(c2ccccc2)c2ccccc2)[C@@H]1OC(C)=O` (stereo partly drawn): the TGI came out at 39.6 µM.

In turn, `N#CC1(C#N)C2CCCCC23OC(=N)C1(C#N)C(c1ccccc1)O3` (stereo not drawn) displayed a TGI of 28.7 µM.

Compound `CCN1CCN=c2c3cc(OC)ccc3n3cnc4ccc1c2c43` displayed a TGI of 1.04 µM.

On to `Cc1ccsc1/C=N/Nc1ccc2ccccc2n1`, for which the TGI is over 100 µM.

For another test, the system named is EKVX NSCLC. Kind of test: NCI-60 cell line screen, 48 h.
Turning to `CC[C@]1(Cc2ccc(OC)c(OC)c2)[C@@H]2C[C@@H](C3OCCO3)ON2O[C@H](OC2CCCC2(c2ccccc2)c2ccccc2)[C@@H]1OC(C)=O` (stereo partly drawn), the TGI stood at 44.6 µM.

`N#CC1(C#N)C2CCCCC23OC(=N)C1(C#N)C(c1ccccc1)O3` (stereo not drawn) showed a TGI of 60.6 µM.

`CCN1CCN=c2c3cc(OC)ccc3n3cnc4ccc1c2c43` gave a TGI of 2.33 µM.

For `Cc1ccsc1/C=N/Nc1ccc2ccccc2n1`, the TGI is over 100 µM.

The next test has as its system HOP-62 NSCLC. The experiment in a line: NCI-60 cell line screen, 48 h.
For the compound `CC[C@]1(Cc2ccc(OC)c(OC)c2)[C@@H]2C[C@@H](C3OCCO3)ON2O[C@H](OC2CCCC2(c2ccccc2)c2ccccc2)[C@@H]1OC(C)=O` (stereo partly drawn), the TGI is 41.5 µM.

For the compound `CCN1CCN=c2c3cc(OC)ccc3n3cnc4ccc1c2c43`, the TGI amounted to 0.924 µM.

For the compound `Cc1ccsc1/C=N/Nc1ccc2ccccc2n1`, the TGI came out at 68.8 µM.

The next test concerns HS 578T breast. Kind of test: NCI-60 cell line screen, 48 h.
Take `N#CC1(C#N)C2CCCCC23OC(=N)C1(C#N)C(c1ccccc1)O3` (stereo not drawn): the TGI amounted to 4.76 µM.

With `CCN1CCN=c2c3cc(OC)ccc3n3cnc4ccc1c2c43`, the TGI was found to be 0.866 µM.

On to `Cc1ccsc1/C=N/Nc1ccc2ccccc2n1`, for which the TGI was over 100 µM.

The next test concerns CCRF-CEM leukemia. The experiment in a line: NCI-60 cell line screen, 48 h.
In turn, `CC[C@]1(Cc2ccc(OC)c(OC)c2)[C@@H]2C[C@@H](C3OCCO3)ON2O[C@H](OC2CCCC2(c2ccccc2)c2ccccc2)[C@@H]1OC(C)=O` (stereo partly drawn) displayed a TGI of 60.8 µM.

(Values after PubChem BioAssay (NCI).)
